Test system: tonsils, throat and back of the mouth
Experiment: topical application of lactic acid (diluted in a liquid carrier such as juice) to tonsils, throat and back of the mouth
Assay type: in vivo, human
Description: In one aspect, a mixture of 10% by volume of pharmaceutical lactic acid is mixed with 90% by volume liquid carrier, such as juice, and the mixture is ingested 3 times a day for a month at a dosage of one teaspoon (approximately 0.005 liters) per application. After a two week pause, the patient is evaluated for the reduction in size of the tonsils. […] The number of applications per day can be reduced to two times a day, in the event that it is hard to implement with the patient, thus extending the duration of the treatment by 10 days.
In one aspect, the mixture or solution is ingested, such as by repeatedly drinking, as at step 50, over a period of time such as a week, to topically apply the mixture or solution constituents to the surfaces of the tonsils, throat and/or mouth, at least twice, with a duration of time between the two applications.

SMILES: CC(O)C(=O)O (stereo not drawn) [lactic acid, Lactic Acid]
- size of the tonsils (topical application to tonsils, throat and mouth): reduction of the size of the tonsils
- recurrence of the inflammation and infection causing the inflammation (topical application, lactic acid diluted in a liquid carrier such as a juice): reduction in the recurrence of the inflammation and infection
- inflammation and pain in the treated areas (topical application, lactic acid diluted in a liquid carrier such as a juice, drunk or otherwise applied): reduction of both inflammation and pain in the treated areas

Reference: US20080044455A1, “Tonsillitus Treatment” (priority 2006, published 2008)
